Measured values: PubChem BioAssay AID1259408 (Genetic Toxicology Data Bank (GENE-TOX), 2018)
Active and inactive are the calls of the source. The rule behind the calls is not given here.

Test system: GENE-TOX genotoxicity assays, various organisms and cells
Test: GENE-TOX mutagenicity studies
Details: for call: Assay Type: In vivo carcinogenicity studies
[1] = Species/Cell Type: Escherichia coli polA (W3119 vs P3478), Assay Type: Rec-assay, DNA effects (bacterial DNA repair), Assay Code: RE1+, Evaluation Type: Evaluation A (Pre-1980)
[2] = Species/Cell Type: Saccharomyces cerevisiae, Assay Type: Mitotic recombination or gene conversion, Assay Code: YEH+, Evaluation Type: Evaluation A (Pre-1980)
[3] = Species/Cell Type: Salmonella typhimurium (one or more of the five standard strains: TA98, TA100, TA1535, TA1537, and TA1538), Assay Type: Histidine reverse gene mutation, Ames assay, Assay Code: SAL-, Evaluation Type: Evaluation A (Pre-1980)
[4] = Species/Cell Type: Salmonella typhimurium, Assay Type: Forward and reverse gene mutation, host-mediated assay, Assay Code: HMA+, Evaluation Type: Evaluation A (Pre-1980)
[5] = Species/Cell Type: Drosophila melanogaster, Assay Type: Sex-linked recessive lethal gene mutation, Assay Code: SRLT, Evaluation Type: Evaluation A (Pre-1980)
[6] = Species/Cell Type: Salmonella typhimurium (one or more of the five standard strains: TA98, TA100, TA1535, TA1537, and TA1538), Assay Type: Histidine reverse gene mutation, Ames assay, Assay Code: SALT, Evaluation Type: Evaluation A (Pre-1980)
[7] = Species/Cell Type: Saccharomyces cerevisiae, Assay Type: Mitotic recombination or gene conversion, Assay Code: YEH-, Evaluation Type: Evaluation A (Pre-1980)
[8] = Species/Cell Type: Mammalian polychromatic erythrocytes, Assay Type: Micronucleus test, chromosome aberrations, Assay Code: MNTT, Evaluation Type: Evaluation B (Post-1980)
[9] = Species/Cell Type: Salmonella typhimurium (one or more of the five standard strains: TA98, TA100, TA1535, TA1537, and TA1538), Assay Type: Histidine reverse gene mutation, Ames assay, Assay Code: SAL+*, Activation: With metabolic activation, Evaluation Type: Evaluation A (Pre-1980)
[10] = Species/Cell Type: Nonhuman, Assay Type: Sister-chromatid exchange (SCE) in vitro, Assay Code: SC2+D, Dose Response: With dose response, Evaluation Type: Evaluation B (Post-1980)
[11] = Species/Cell Type: Salmonella typhimurium (one or more of the five standard strains: TA98, TA100, TA1535, TA1537, and TA1538), Assay Type: Histidine reverse gene mutation, Ames assay, Assay Code: SAL+, Evaluation Type: Evaluation A (Pre-1980)

With `CN(C)c1ccc(C(=N)c2ccc(N(C)C)cc2)cc1` the mutagenic call [1] was “active; positive”, the mutagenic call (Species/Cell Type: Mammalian polychromatic erythrocytes, Assay Type: Micronucleus test, chromosome aberrations, Assay Code: MNTT, Evaluation Type: Evaluation A (Pre-1980)) was “no conclusion” and the call (Species/Cell Type: Nonhuman, Assay Code: CCG+L, Evaluation Type: Evaluation A (Pre-1980)) was “active; positive”. The mutagenic call (Species/Cell Type: Nonhuman, Assay Type: Sister-chromatid exchange (SCE) in vitro, Assay Code: SC2+*, Activation: With metabolic activation, Evaluation Type: Evaluation B (Post-1980)) was “active; positive”, the mutagenic call (Species/Cell Type: Nonhuman, Assay Type: Sister-chromatid exchange (SCE) in vivo, Assay Code: SC3+, Evaluation Type: Evaluation B (Post-1980)) was “active; positive” and the mutagenic call [2] was “active; positive”. For the same compound, the mutagenic call [3] was “inactive; negative” and the mutagenic call (Species/Cell Type: Syrian hamster embryo (SHE) cells, Assay Type: Cell transformation, clonal assay, Assay Code: CTCT, Evaluation Type: Evaluation A (Pre-1980)) was “no conclusion”.
With `C#C[C@]1(O)CC[C@H]2[C@@H]3CCc4cc(CC)ccc4[C@H]3CC[C@@]21C` (tested in a mixture with another compound) the mutagenic call (Species/Cell Type: Rodents, Sex: Male, Assay Type: Dominant lethal test, Assay Code: DLTT, Evaluation Type: Evaluation A (Pre-1980)) was “no conclusion”.
With `NC(=S)NCCNC(N)=S` the mutagenic call [4] was “active; positive”.
`CCN(CC)c1ccc2nc3ccc(N=Nc4ccc(N(C)C)cc4)cc3[n+](-c3ccccc3)c2c1` was tested, and the mutagenic call (Species/Cell Type: Bacillus subtilis (H17 vs M45T), Assay Type: Rec-assay, spot test, DNA effects (bacterial DNA repair), Assay Code: REXT, Evaluation Type: Evaluation A (Pre-1980)) was “no conclusion”.
With `O=c1[nH]cc[nH]1` the mutagenic call [5] was “no conclusion”.
`COC1=C(N)C(=O)c2nc(-c3nc(C(=O)O)c(C)c(-c4ccc(OC)c(OC)c4O)c3N)ccc2C1=O` was tested, and the mutagenic call (Species/Cell Type: Fischer rat embryo (RLV/1706) cells, Assay Type: Cell transformation, viral enhanced, Assay Code: CTR-, Evaluation Type: Evaluation A (Pre-1980)) was “inactive; negative”, the mutagenic call (Species/Cell Type: Human cell culture, Assay Type: Chromosome aberrations in vitro, Assay Code: CYZ+, Evaluation Type: Evaluation A (Pre-1980)) was “active; positive” and the mutagenic call (Species/Cell Type: Human diploid fibroblasts, Assay Type: Unscheduled DNA synthesis (UDS) in vitro, DNA effects, Assay Code: UDH+, Evaluation Type: Evaluation A (Pre-1980)) was “active; positive”. For the same compound, the mutagenic call (Species/Cell Type: Mammalian oocytes or early embryo, Assay Type: Chromosome aberrations in vivo, Assay Code: CYO+, Evaluation Type: Evaluation A (Pre-1980)) was “active; positive”, the mutagenic call (Species/Cell Type: Nonhuman, Assay Type: Sister-chromatid exchange (SCE) in vivo, Assay Code: SC3+, Evaluation Type: Evaluation A (Pre-1980)) was “active; positive” and the mutagenic call (Species/Cell Type: Vicia faba, Assay Type: Chromosome aberrations, Assay Code: VIC+, Evaluation Type: Evaluation A (Pre-1980)) was “active; positive”.
For `OC(c1ccccc1)C(c1ccccc1)c1ccccc1` (stereo unspecified), the mutagenic call (Species/Cell Type: Escherichia coli polA (W3119 vs P3478), Assay Type: Rec-assay, DNA effects (bacterial DNA repair), Assay Code: RE1T, Evaluation Type: Evaluation A (Pre-1980)) was “no conclusion”.
In the case of `O=C1CCc2c1c(=O)oc1c3c(cc(O)c21)O[C@H]1OC=C[C@@H]31`, the mutagenic call [6] is reported as “no conclusion”.
`ClN1CCCCC1` was tested, and the mutagenic call (Species/Cell Type: Mammalian polychromatic erythrocytes, Assay Type: Micronucleus test, chromosome aberrations, Assay Code: MNT-, Evaluation Type: Evaluation B (Post-1980)) was “inactive; negative”.
With `CCCCCCCCCCCCCCCC(=O)OC/C=C(C)/C=C/C=C(C)/C=C/C1=C(C)CCCC1(C)C` the mutagenic call (Species/Cell Type: Human, Assay Type: Sister-chromatid exchange (SCE) in vitro, Assay Code: SC1+D, Dose Response: With dose response, Evaluation Type: Evaluation A (Pre-1980)) was “active; positive”.
In the case of `CCCCCC[C@@H](O)[C@@H]1C2=C(C[C@H]([C@H](O)[C@@H]3CC=CC(=O)O3)CC3=C(C(=O)OC3=O)[C@@H]1O)C(=O)OC2=O`, the mutagenic call (Species/Cell Type: Bacillus subtilis (H17 vs M45), Assay Type: Rec-assay, spot test, DNA effects (bacterial DNA repair), Assay Code: REW-, Evaluation Type: Evaluation A (Pre-1980)) is reported as “inactive; negative”, the mutagenic call (Species/Cell Type: Rodents, Sex: Male, Assay Type: Dominant lethal test, Assay Code: DLT+, Evaluation Type: Evaluation A (Pre-1980)) is reported as “active; positive” and the mutagenic call [7] is reported as “inactive; negative”. For the same compound, the mutagenic call [6] was “no conclusion”.
`NCC[C@H](O)C(=O)N[C@@H]1C[C@H](N)[C@@H](O[C@H]2O[C@H](CN)[C@@H](O)[C@H](O)[C@H]2O)[C@H](O)[C@H]1O[C@H]1O[C@H](CO)[C@@H](O)[C@H](N)[C@H]1O` was tested, and the mutagenic call [7] was “inactive; negative”.
`[O][Cl+][O-]` was tested, and the mutagenic call [8] was “no conclusion”.
With `ClC1=C(Cl)[C@]2(Cl)[C@@H]3[C@@H]4C[C@@H]([C@H]5O[C@@H]45)[C@@H]3[C@@]1(Cl)C2(Cl)Cl` the mutagenic call (Species/Cell Type: Chinese hamster lung (V79) cells, Assay Type: Forward gene mutation at the HPRT or ouabain locus, Assay Code: V79+, Evaluation Type: Evaluation A (Pre-1980)) was “active; positive”, the mutagenic call [5] was “no conclusion” and the mutagenic call (Species/Cell Type: Rodents, Sex: Male, Assay Type: Dominant lethal test, Assay Code: DLT-, Evaluation Type: Evaluation A (Pre-1980)) was “inactive; negative”. For the same compound, the mutagenic call (Species/Cell Type: Saccharomyces cerevisiae, Assay Type: Forward and reverse gene mutation, mitotic recombination and gene conversion, host-mediated assay, Assay Code: HME-, Evaluation Type: Evaluation A (Pre-1980)) was “inactive; negative”, the mutagenic call [7] was “inactive; negative” and the mutagenic call [3] was “inactive; negative”.
With `CN=C(NC#N)NCCSCc1nc[nH]c1C` the mutagenic call (Species/Cell Type: Human lymphocytes, Assay Type: Sister-chromatid exchange (SCE) in vitro, Assay Code: SCLT, Evaluation Type: Evaluation B (Post-1980)) was “no conclusion”, the mutagenic call (Species/Cell Type: Human, Assay Type: Sister-chromatid exchange (SCE) in vitro, Assay Code: SC1T, Evaluation Type: Evaluation B (Post-1980)) was “no conclusion” and the mutagenic call (Species/Cell Type: Human, Sex: Male, Assay Type: Sperm morphology, Assay Code: SPHT, Evaluation Type: Evaluation A (Pre-1980)) was “no conclusion”.
In the case of `O=C1NC(=O)C(c2ccc(O)cc2)(c2ccc(O)cc2)N1`, the mutagenic call [8] is reported as “no conclusion”.
In the case of `CS(=O)(=O)OCCNP1(=O)OCCCN1CCCl` (stereo unspecified), the mutagenic call (Species/Cell Type: Mammalian polychromatic erythrocytes, Assay Type: Micronucleus test, chromosome aberrations, Assay Code: MNT+U, Dose Response: Unconfirmed positive response, Evaluation Type: Evaluation A (Pre-1980)) is reported as “active; positive”.
For `CCCCCCCC(=O)Oc1c(I)cc(C#N)cc1I`, the mutagenic call (Species/Cell Type: Bacillus subtilis (H17 vs M45), Assay Type: Rec-assay, spot test, DNA effects (bacterial DNA repair), Assay Code: REWT, Evaluation Type: Evaluation A (Pre-1980)) was “no conclusion”.
In the case of `Nc1ncnc2c1ncn2[C@@H]1O[C@H](COP(=O)(O)OP(=O)(O)OP(=O)(O)O)[C@@H](O)[C@H]1O`, the mutagenic call (Species/Cell Type: Drosophila melanogaster, Assay Type: Aneuploidy, whole sex chromosome loss, chromosome aberrations, Assay Code: DAC-M, Evaluation Type: Evaluation A (Pre-1980)) is reported as “inactive; negative”.
In the case of `C1CCCCC1`, the mutagenic call [3] is reported as “inactive; negative” and the mutagenic call (Species/Cell Type: Syrian hamster embryo (SA7/SHE) cells, Assay Type: Cell transformation, viral enhanced, Assay Code: CT7-, Evaluation Type: Evaluation A (Pre-1980)) is reported as “inactive; negative”.
In the case of `COc1ccc(-c2c(-c3ccc(OC)cc3)c3ccc(OC)cc3c3cc(OC)ccc23)cc1`, the mutagenic call [6] is reported as “no conclusion”.
`Cc1cccc2c1ccc1c3ccccc3ccc21` was tested, and the mutagenic call [9] was “active; positive”.
With `CN(C)C(=O)Cl` the mutagenic call [1] was “active; positive”, the mutagenic call (Species/Cell Type: Human diploid fibroblasts, Assay Type: Unscheduled DNA synthesis (UDS) in vitro, DNA effects, Assay Code: UDH-, Evaluation Type: Evaluation A (Pre-1980)) was “inactive; negative” and the mutagenic call (Species/Cell Type: Mammalian polychromatic erythrocytes, Assay Type: Micronucleus test, chromosome aberrations, Assay Code: MNT+, Evaluation Type: Evaluation A (Pre-1980)) was “active; positive”. For the same compound, the call (Species/Cell Type: Nonhuman, Assay Code: CCG+, Evaluation Type: Evaluation A (Pre-1980)) was “active; positive”, the mutagenic call [10] was “active; positive” and the mutagenic call [2] was “active; positive”. For the same compound, the mutagenic call [11] was “active; positive”, the mutagenic call [4] was “active; positive” and the mutagenic call (Species/Cell Type: Syrian hamster embryo (SHE) cells, Assay Type: Cell transformation, clonal assay, Assay Code: CTC+, Evaluation Type: Evaluation A (Pre-1980)) was “active; positive”.
`O=[N+]([O-])c1ccc(/C=N\O)o1` was tested, and the mutagenic call (Species/Cell Type: Escherichia coli WP2, Assay Type: Tryptophan reverse gene mutation, Assay Code: WP2-, Evaluation Type: Evaluation A (Pre-1980)) was “inactive; negative”, the mutagenic call (Species/Cell Type: Escherichia coli WP2 UVRA, Assay Type: Tryptophan reverse gene mutation, Assay Code: WPU+D, Dose Response: With dose response, Evaluation Type: Evaluation A (Pre-1980)) was “active; positive” and the mutagenic call [11] was “active; positive”.
In the case of `COC(=O)[C@H](N)Cc1cnc[nH]1`, the mutagenic call (Species/Cell Type: Drosophila melanogaster, Assay Type: Sex-linked recessive lethal gene mutation, Assay Code: SRL-, Evaluation Type: Evaluation A (Pre-1980)) is reported as “inactive; negative”.
`C[C@]12CCC(=O)C=C1CC[C@@H]1[C@@H]2CC[C@@]2(C)[C@H]1CC[C@]2(C)O` was tested, and the mutagenic call (Species/Cell Type: Human, Sex: Male, Assay Type: Sperm morphology, Assay Code: SPH-, Evaluation Type: Evaluation A (Pre-1980)) was “inactive; negative”.
In the case of `CC1=CCc2c1c(C)c(C)c1c2ccc2ccccc21`, the mutagenic call [9] is reported as “active; positive”.
With `C=CC=O` the mutagenic call [10] was “active; positive”.
